# Data taken from patent publication US8501186B2, “Adjuvant composition for vaccine” (Serum Institute of India, Ltd., priority 2009, dated 2013).
# System: normal mice
# Assay: Comparative adjuvant activity on total anti-polysaccharide IgG levels in normal mice (Meningococcal A polysaccharide)
# Format: in vivo
# Conditions: parenteral, 14 and 28 day; for Total IgG level: IgG day 42, Mean ± SE
# Experimental: The present adjuvant and extracts were administered with Meningococcal A polysaccharide on indicated days and IgG levels were estimated on day 42 to assess adjuvant activity.
SMILES,Activity (%) (percent immunomodulatory activity) (0.011 mg/kg),Total IgG level (0.011 mg/kg),Activity (%) (percent immunomodulatory activity) (0.0185 mg/kg),Total IgG level (0.0185 mg/kg)
CC1=C(CO)C(=O)O[C@@H]([C@@H](C)[C@H]2CC[C@H]3[C@@H]4C[C@H]5O[C@]56[C@@H](O)C=CC(=O)[C@]6(C)[C@H]4CC[C@]23C)C1 [Withaferin A],38.12%,397.47 ± 93.71,–,–
CC1=C(C)C(=O)O[C@@H]([C@](C)(O)[C@H]2CC[C@H]3[C@@H]4[C@@H]5O[C@@H]5[C@@]5(O)CC=CC(=O)[C@]5(C)[C@H]4CC[C@]23C)C1 [Withanolide A],–,–,14.62%,329.84 ± 86.82
